How the values were obtained:
HaCaT [1] = assay: Antiinflammatory activity against IFN-gamma-stimulated human HaCaT cells assessed as inhibition of chemokine MDC production at 50 to 100 uM after 18 hrs by ELISA; type: functional, cell-based
HaCaT [2] = assay: Cytotoxicity against human HaCaT cells at 50 to 100 uM after 24 hrs by MTT assay; type: cell-based
RAW264.7 [3] = assay: Cytotoxicity against mouse RAW264.7 cells at 50 uM after 24 hrs by MTT assay; type: cell-based; conditions: raw264.7, 24 h
RAW264.7 [4] = assay: Cytotoxicity against mouse RAW264.7 cells at 100 uM after 24 hrs by MTT assay; type: cell-based; conditions: raw264.7, 24 h

Structure (SMILES)	Activity (HaCaT [1])	Activity (HaCaT [2])	Activity (RAW264.7 [3])	Activity (RAW264.7 [4])
CC/C=C\C/C=C\C/C=C\CCCCCCCC(=O)O [LINOLENIC ACID]	Non-toxic	Toxic		
CCCCCCCC(=O)/C=C/CCCCCCCC(=O)NCCc1c[nH]c2ccc(O)cc12	Non-toxic	Toxic	Toxic	Toxic
CCCCCCC/C=C/C(=O)CCCCCCCC(=O)N[C@H](C)CO	Non-toxic	Toxic	Toxic	Toxic
CCCCCCCCCCCCCCCC(=O)NCCO [PALMIDROL]	Non-toxic	Toxic		
CCCCCCCC/C=C/C(=O)CCCCCCC(=O)NCCCl	Non-toxic	Toxic	Toxic	Toxic
CCCCCCCC/C=C/C(=O)CCCCCCC(=O)NCCc1c[nH]c2ccc(O)cc12	Non-toxic	Toxic	Toxic	Toxic
CCCCCCCC(=O)/C=C/CCCCCCCC(=O)N[C@H](C)CO	Non-toxic	Toxic	Toxic	Toxic
CCCCCCCC/C=C\CCCCCCCCCCCC(=O)NC(C)C	Non-toxic	Toxic		
CCCCC/C=C\C/C=C\CCCCCCCC(=O)NC(C)C	Non-toxic	Toxic		
CCCCCCCC/C=C/C(=O)CCCCCCC(=O)NCCO	Non-toxic	Toxic	Toxic	Toxic
CCCCCCCC/C=C/C(=O)CCCCCCC(=O)NC(C)C	Non-toxic	Toxic	Toxic	Toxic
CC/C=C\C/C=C\C/C=C\CCCCCCCC(=O)NCC(O)CO (racemic)	Non-toxic	Toxic		
CCCCCCC/C=C/C(=O)CCCCCCCC(=O)NCCO	Non-toxic	Toxic	Toxic	Toxic
CCCCCCCC/C=C\CCCCCCCCCCCC(=O)N[C@H](C)CO	Non-toxic	Toxic		
CCCCCCC/C=C/C(=O)CCCCCCCC(=O)NCCCl	Non-toxic	Toxic	Toxic	Toxic
CCCCCCCC/C=C\CCCCCCCC(=O)N[C@H](C)CO	Non-toxic	Toxic		
CC/C=C\C/C=C\C/C=C\CCCCCCCC(=O)NCCO	Non-toxic	Toxic		
CCCCCCC/C=C/C(=O)CCCCCCCC(=O)NC(C)C	Non-toxic	Toxic	Toxic	Toxic
CCCCCCCC/C=C/C(=O)CCCCCCC(=O)NCC(O)CO (racemic)	Non-toxic	Toxic	Toxic	Toxic
CCCCCCCCCCCCCCCC(=O)NCC(O)CO (racemic)	Non-toxic	Toxic		
CCCCCCCC/C=C/C(=O)CCCCCCC(=O)N[C@H](C)CO	Non-toxic	Toxic	Toxic	Toxic
CCCCCCCC/C=C/C(=O)CCCCCCC(=O)NCCc1ccc(O)c(O)c1	Non-toxic	Toxic	Toxic	Toxic
CCCCCCCC/C=C\CCCCCCCC(=O)NCCCl	Non-toxic	Toxic		
CC/C=C\C/C=C\C/C=C\CCCCCCCC(=O)NCC(=O)O	Non-toxic	Toxic		
CCCCC/C=C\C/C=C\CCCCCCCC(=O)N[C@H](C)CO	Non-toxic	Toxic		

Structure (SMILES)	Activity (HaCaT [1])	Activity (HaCaT [2])	Activity (RAW264.7 [3])	Activity (RAW264.7 [4])
CC/C=C\C/C=C\C/C=C\CCCCCCCC(=O)NCCc1c[nH]c2ccc(O)cc12	Non-toxic	Toxic		
CCCCC/C=C\C/C=C\CCCCCCCC(=O)NCC(O)CO (racemic)	Non-toxic	Toxic		
CCCCCCCC(=O)/C=C/CCCCCCCC(=O)NCCCl	Non-toxic	Toxic	Toxic	Toxic
CCCCCCCC/C=C\CCCCCCCCCCCC(=O)NCC(O)CO (racemic)	Non-toxic	Toxic		
CCCCC/C=C\C/C=C\CCCCCCCC(=O)NCCCl	Non-toxic	Toxic		
CCCCCCCC/C=C\CCCCCCCCCCCC(=O)NCCCl	Non-toxic	Toxic		
CCCCCCCC(=O)/C=C/CCCCCCCC(=O)NC(C)C	Non-toxic	Toxic	Toxic	Toxic
CCCCCCCCCCCCCCCC(=O)NCCCl	Non-toxic	Toxic		
CCCCCCC/C=C/C(=O)CCCCCCCC(=O)NCC(O)CO (racemic)	Non-toxic	Toxic	Toxic	Toxic
CCCCCCC/C=C/C(=O)CCCCCCCC(=O)NCCc1ccc(O)c(O)c1	Non-toxic	Toxic	Toxic	Toxic
CCCCCCCCCCCCCCCC(=O)N[C@H](C)CO	Non-toxic	Toxic		
CCCCCCCCCCCCCCCC(=O)NC(C)C [HEXADECANOIC ACID ISOPROPYLAMIDE]	Non-toxic	Toxic		
CCCCC/C=C\C/C=C\CCCCCCCC(=O)NCCO [LINOLEOYLETHANOLAMIDE]	Non-toxic	Toxic		
CCCCC/C=C\C/C=C\CCCCCCCC(=O)NCC(=O)O [LINOLEOYL GLYCINE]	Non-toxic	Toxic		
CCCCCCCC/C=C\CCCCCCCC(=O)NC(C)C	Non-toxic	Toxic		
CCCCCCCCCCCCCCCC(=O)NCC(=O)O [PALMITOYL GLYCINE]	Non-toxic	Toxic		
CC/C=C\C/C=C\C/C=C\CCCCCCCC(=O)NCCCl	Non-toxic	Toxic		
CCCCCCCC(=O)/C=C/CCCCCCCC(=O)NCCc1ccc(O)c(O)c1	Non-toxic	Toxic	Toxic	Toxic
CCCCCCCC/C=C\CCCCCCCC(=O)NCCO [OLEOYLETHANOLAMIDE]	Non-toxic	Toxic		
CCCCCCCC/C=C\CCCCCCCC(=O)NCC(=O)O [OLEOYL GLYCINE]	Non-toxic	Toxic		
CCCCCCCC/C=C\CCCCCCCCCCCC(=O)NCCO	Non-toxic	Toxic		
CC/C=C\C/C=C\C/C=C\CCCCCCCC(=O)NC(C)C	Non-toxic	Toxic		
CC/C=C\C/C=C\C/C=C\CCCCCCCC(=O)N[C@H](C)CO	Non-toxic	Toxic		
CCCCCCCC/C=C\CCCCCCCC(=O)NCC(O)CO (racemic)	Non-toxic	Toxic		
